Test results published in the supplement of paper PMC10307832.

Tests used:
Test in all cases: relative viability (nuclei count vs DMSO), 5 days (fraction); higher = more cells survive
[1] = compound: O=C(O)c1ccc2c(c1)nc(Nc1cccc(Cl)c1)c1ccncc12 [Silmitasertib] + C[C@]1(O)C[C@@H](c2nc(-c3ccc4ccc(-c5ccccc5)nc4c3)c3c(N)nccn32)C1 [Linsitinib] (partner 1 µM)
Outline: (§1)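 Medians of duplicate plates are given as relative viability. That measure is the nuclei count in treated wells divided by the count in vehicle wells. Counts were taken on 4× images of lung cancer cell lines in 1536-well plates, 5 days after pin-tool dosing the day after seeding with one drug alone or a fixed anchor-drug dose plus five library-drug doses (not always all listed) in √10 steps.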

[2] = compound: O=C(O)c1ccc2c(c1)nc(Nc1cccc(Cl)c1)c1ccncc12 [Silmitasertib] + C[C@@H](Oc1cc(-c2cnn(C3CCNCC3)c2)cnc1N)c1c(Cl)ccc(F)c1Cl [Crizotinib] (partner 1 µM)
Outline: as §1

[3] = compound: O=C(O)c1ccc2c(c1)nc(Nc1cccc(Cl)c1)c1ccncc12 [Silmitasertib] + COc1cc2c(Oc3ccc(NC(=O)C4(C(=O)Nc5ccc(F)cc5)CC4)cc3F)ccnc2cc1OCCCN1CCOCC1 [Foretinib] (partner 0.25 µM)
Outline: as §1

[4] = compound: O=C(O)c1ccc2c(c1)nc(Nc1cccc(Cl)c1)c1ccncc12 [Silmitasertib] + Cc1nc(NC(=O)N2CCC[C@H]2C(N)=O)sc1-c1ccnc(C(C)(C)C(F)(F)F)c1 [Alpelisib] (partner 2 µM)
Outline: as §1

[5] = compound: O=C(O)c1ccc2c(c1)nc(Nc1cccc(Cl)c1)c1ccncc12 [Silmitasertib] + CS(=O)(=O)N1CCN(Cc2cc3nc(-c4cccc5[nH]ncc45)nc(N4CCOCC4)c3s2)CC1 [Pictilisib] (partner 1 µM)
Outline: as §1

[6] = compound: O=C(O)c1ccc2c(c1)nc(Nc1cccc(Cl)c1)c1ccncc12 [Silmitasertib] + CC(C)C[C@H](NC(=O)[C@H](Cc1ccccc1)NC(=O)c1cnccn1)B(O)O [Bortezomib] (partner 0.002 µM)
Outline: as §1

[7] = compound: O=C(O)c1ccc2c(c1)nc(Nc1cccc(Cl)c1)c1ccncc12 [Silmitasertib] + CC1(C)CCC(c2ccc(Cl)cc2)=C(CN2CCN(c3ccc(C(=O)NS(=O)(=O)c4ccc(N[C@H](CCN5CCOCC5)CSc5ccccc5)c(S(=O)(=O)C(F)(F)F)c4)cc3)CC2)C1 [Navitoclax] (partner 0.5 µM)
Outline: as §1

[8] = compound: O=C(O)c1ccc2c(c1)nc(Nc1cccc(Cl)c1)c1ccncc12 [Silmitasertib] + CS(=O)(=O)CCNCc1ccc(-c2ccc3ncnc(Nc4ccc(OCc5cccc(F)c5)c(Cl)c4)c3c2)o1 [Lapatinib] (partner 2 µM)
Outline: as §1

Silmitasertib + Olaparib = compound: O=C(O)c1ccc2c(c1)nc(Nc1cccc(Cl)c1)c1ccncc12 [Silmitasertib] + O=C(c1cc(Cc2n[nH]c(=O)c3ccccc23)ccc1F)N1CCN(C(=O)C2CC2)CC1 [Olaparib] (partner 8 µM)
Outline: as §1

Silmitasertib = compound: O=C(O)c1ccc2c(c1)nc(Nc1cccc(Cl)c1)c1ccncc12 [Silmitasertib]
Outline: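 A plate was accepted only when its control CV was below 25% and the cells had doubled at least once. Viability is defined from nuclear counts as treated wells divided by vehicle wells, with the median taken across plates. That median covers lung cancer cell lines grown in 1536-well plates, dosed by pinning at five √10-spaced library-drug concentrations, and counted in MetaXpress from 4× Hoechst images after 5 days.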

Cell Line: NCI-H1299
- relative viability ([1]; first compound 0.04 µM): 0.96
- relative viability ([1]; first compound 0.4 µM): 1.01
- relative viability ([1]; first compound 1.265 µM): 0.901
- relative viability ([1]; first compound 4 µM): 0.587
- relative viability ([2]; first compound 0.04 µM): 0.956
- relative viability ([2]; first compound 0.4 µM): 0.99
- relative viability ([2]; first compound 1.265 µM): 0.994
- relative viability ([2]; first compound 4 µM): 0.764
- relative viability ([3]; first compound 0.04 µM): 1.19
- relative viability ([3]; first compound 0.4 µM): 1.08
- relative viability ([3]; first compound 1.265 µM): 1.02
- relative viability ([3]; first compound 4 µM): 1.13
- relative viability ([4]; first compound 0.04 µM): 1.08
- relative viability ([4]; first compound 0.4 µM): 1.04
- relative viability ([4]; first compound 1.265 µM): 1.02
- relative viability ([4]; first compound 4 µM): 0.826
- relative viability ([5]; first compound 0.04 µM): 1.07
- relative viability ([5]; first compound 0.4 µM): 0.559
- relative viability ([5]; first compound 1.265 µM): 0.343
- relative viability ([5]; first compound 4 µM): 0.277
- relative viability ([6]; first compound 0.04 µM): 1.08
- relative viability ([6]; first compound 0.4 µM): 1.01
- relative viability ([6]; first compound 1.265 µM): 0.988
- relative viability ([6]; first compound 4 µM): 1.04
- relative viability ([7]; first compound 0.04 µM): 1.1
- relative viability ([7]; first compound 0.4 µM): 1.02
- relative viability ([7]; first compound 1.265 µM): 1.06
- relative viability ([7]; first compound 4 µM): 1.05
- relative viability ([8]; first compound 0.04 µM): 0.989
- relative viability ([8]; first compound 0.4 µM): 0.949
- relative viability ([8]; first compound 1.265 µM): 0.894
- relative viability ([8]; first compound 4 µM): 0.804
- relative viability (Silmitasertib + Olaparib; first compound 0.04 µM): 0.946
- relative viability (Silmitasertib + Olaparib; first compound 0.4 µM): 1.02
- relative viability (Silmitasertib + Olaparib; first compound 1.265 µM): 0.872
- relative viability (Silmitasertib + Olaparib; first compound 4 µM): 0.803
- relative viability (Silmitasertib; 0.04 µM): 1.05
- relative viability (Silmitasertib; 0.4 µM): 1.03
- relative viability (Silmitasertib; 1.265 µM): 0.945
- relative viability (Silmitasertib; 4 µM): 0.834
